This is an account of results in publication PMC4697445 (Journal of medicinal chemistry, 2015).

The test system of data set [1] is PDE10A. The conditions noted are these: cited from earlier work.
The conditions of data set [2]: cited from earlier work.
In data set [3] the target is PDE10A (Rattus norvegicus, UniProt Q9QYJ6). The conditions noted are these: by 30 min p.i.
The test system of data set [4] is PDE10A. Particulars: for ratios of uptake in the striatum vs nontarget brain regions: by 40 min p.i.; for visualization of striatum in microPET: cynomolgus macaque, summed images 0 to 180 min.
The conditions of data set [5]: for radioactivity of arterial blood found in the plasma: plasma separated from packed red cells.
A short description of data set [6]: Biodistribution in rats. Format: in vivo, male Sprague-Dawley rats. The conditions noted are these: rat; for in vivo metabolic defluorination (bone activity): 5 to 60 min p.i.; for blood uptake / bone uptake / brain uptake / fat uptake / kidney uptake / liver uptake / muscle uptake: iv, mean ± SD, n = 4.

Molecules are shown by their SMILES. Like-named read-outs stand apart in the source and are kept apart here.

PDE10A (Rattus norvegicus, UniProt Q9QYJ6), sequence (Q9QYJ6 whole entry): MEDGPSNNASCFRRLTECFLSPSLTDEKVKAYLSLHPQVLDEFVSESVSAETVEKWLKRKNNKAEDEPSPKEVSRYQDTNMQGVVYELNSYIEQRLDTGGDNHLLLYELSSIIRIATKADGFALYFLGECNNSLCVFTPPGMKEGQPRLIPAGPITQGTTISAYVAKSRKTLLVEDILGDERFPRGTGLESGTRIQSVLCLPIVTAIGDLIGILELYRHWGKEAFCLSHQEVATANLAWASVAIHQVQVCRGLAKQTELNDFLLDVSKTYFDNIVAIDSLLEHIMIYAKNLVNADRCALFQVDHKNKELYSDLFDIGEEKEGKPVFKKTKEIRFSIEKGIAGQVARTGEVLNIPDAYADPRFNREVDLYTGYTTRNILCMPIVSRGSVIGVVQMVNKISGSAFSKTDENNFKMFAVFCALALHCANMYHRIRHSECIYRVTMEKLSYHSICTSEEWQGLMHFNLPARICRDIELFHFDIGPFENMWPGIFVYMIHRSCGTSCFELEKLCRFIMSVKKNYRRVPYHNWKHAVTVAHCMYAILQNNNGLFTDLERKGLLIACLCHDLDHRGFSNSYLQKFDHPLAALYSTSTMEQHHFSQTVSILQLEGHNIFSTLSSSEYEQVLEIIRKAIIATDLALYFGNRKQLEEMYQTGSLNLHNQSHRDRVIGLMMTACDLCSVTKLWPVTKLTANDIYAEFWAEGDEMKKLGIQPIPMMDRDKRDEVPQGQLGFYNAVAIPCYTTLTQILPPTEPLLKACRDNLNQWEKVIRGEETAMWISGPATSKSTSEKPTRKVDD

By IC50 is commonly meant the concentration that inhibits the measured activity by half. Turning to `Cn1cc(-c2ccncc2)c(-c2ccc(OCc3ccc4ccccc4n3)cc2)n1` [MP-10, 2-[4-(1-methyl-4-pyridin-4-yl-1H-pyrazol-3-yl)-phenoxymethyl]-quinoline], in data set [1], the PDE10A selectivity is listed as […]. Besides, the IC50 in data set [1] (read-out: PDE10A IC50) is […].
Turning to `Cn1cc(-c2ccncc2)c(-c2ccc(OCc3ccc4ccccc4n3)cc2)n1` [[^11C]MP-10], the brain uptake is 0.162 ± 0.025 %ID/g in data set [2] (5 min p.i.), 0.066 ± 0.008 %ID/g in data set [2] (30 min p.i.) and […] in data set [2] (60 min p.i.).
Regarding `Cn1cc(-c2ccncc2)c(-c2ccc(OCc3cc(OCC[18F])c4ccccc4n3)cc2)n1` [[^18F]18d, 4-((2-Fluoro-^18F)ethoxy)-2-((4-(1-methyl-4-(pyridin-4-yl)-1H-pyrazol-3-yl)phenoxy)methyl)quinoline], in data set [3], the “ratio of activity in the striatum versus nontarget brain regions” value is reported as greater than 2 fold. In addition, in data set [4] (cynomolgus macaque microPET), the “ratios of uptake in the striatum vs nontarget brain regions” value was greater than 3 fold. For the same molecule, in data set [4], the “visualization of striatum in microPET” value is reported as “clear visualization of the PDE10A-enriched striatum”. In data set [5] (NHP plasma, 2 min p.i.), the “% peak 1 (radiometabolite, retention time ~3.5 min)” value came out at 1% and the “% peak 2 (radiometabolite, retention time ~7.5 min)” value was found to be 0%. In data set [5] (NHP plasma, 15 min p.i.), the “% peak 1 (radiometabolite, retention time ~3.5 min)” value stood at 4% and the “% peak 2 (radiometabolite, retention time ~7.5 min)” value is 0%. For the same molecule, in data set [5] (NHP plasma, 30 min p.i.), the “% peak 1 (radiometabolite, retention time ~3.5 min)” value was 7% and the “% peak 2 (radiometabolite, retention time ~7.5 min)” value stood at 1%. Also, in data set [5] (NHP plasma, 60 min p.i.), the “% peak 1 (radiometabolite, retention time ~3.5 min)” value is on record as 19% and the “% peak 2 (radiometabolite, retention time ~7.5 min)” value was determined as 5%. In data set [5] (NHP plasma, 90 min p.i.), the “% peak 1 (radiometabolite, retention time ~3.5 min)” value was found to be 32% and the “% peak 2 (radiometabolite, retention time ~7.5 min)” value is on record as 9%. Further, in data set [5], the “radioactivity of arterial blood found in the plasma” value is recorded as 65–75%. Also, the “in vivo metabolic defluorination (bone activity)” value in data set [6] is “appeared more stable to in vivo defluorination”. In data set [6] (5 min p.i.), this molecule had a blood uptake of 0.362 ± 0.048 %ID/g, a bone uptake of 0.189 ± 0.004 %ID/g, a brain uptake of 0.118 ± 0.012 %ID/g and a fat uptake of 0.213 ± 0.007 %ID/g. In data set [6] (5 min p.i.), this molecule had a kidney uptake of 2.200 ± 0.158 %ID/g, a liver uptake of 6.88 ± 1.15 %ID/g and a muscle uptake of 0.247 ± 0.031 %ID/g. In data set [6] (30 min p.i.), this molecule registered a blood uptake of 0.226 ± 0.073 %ID/g, a bone uptake of 0.091 ± 0.012 %ID/g, a brain uptake of 0.078 ± 0.009 %ID/g and a fat uptake of 0.302 ± 0.033 %ID/g. Besides, in data set [6] (30 min p.i.), the kidney uptake came out at 1.055 ± 0.218 %ID/g, the liver uptake came to 6.98 ± 0.99 %ID/g and the muscle uptake was 0.134 ± 0.019 %ID/g. Besides, in data set [6] (60 min p.i.), the blood uptake is listed as 0.215 ± 0.008 %ID/g, the bone uptake is reported as 0.142 ± 0.001 %ID/g, the brain uptake was 0.101 ± 0.002 %ID/g and the fat uptake turned out to be 0.259 ± 0.025 %ID/g. Moreover, in data set [6] (60 min p.i.), the kidney uptake stood at 0.765 ± 0.153 %ID/g, the liver uptake worked out at 3.29 ± 0.56 %ID/g and the muscle uptake is given as 0.132 ± 0.011 %ID/g.
Turning to `Cn1cc(-c2ccncc2)c(-c2ccc(OCc3nc4ccccc4cc3OCC[18F])cc2)n1` [[^18F]20a, 3-((2-Fluoro-^18F)ethoxy)-2-((4-(1-methyl-4-(pyridin-4-yl)-1H-pyrazol-3-yl)phenoxy)methyl)-quinoline], the “ratio of activity in the striatum versus nontarget brain regions” value in data set [3] is given as greater than 2 fold. Moreover, in data set [4] (cynomolgus macaque microPET), the “ratios of uptake in the striatum vs nontarget brain regions” value is greater than 3 fold. Also, the “target:nontarget ratios” value in data set [4] (cynomolgus macaque microPET, by 70 min p.i.) is greater than 5 fold. In data set [4], the “visualization of striatum in microPET” value is “clear visualization of the PDE10A-enriched striatum”. In addition, in data set [5] (NHP plasma, 2 min p.i.), the “% peak 1 (radiometabolite, retention time ~3.5 min)” value is reported as 0% and the “% peak 2 (radiometabolite, retention time ~7.5 min)” value stood at 0%. For the same molecule, in data set [5] (NHP plasma, 15 min p.i.), the “% parent” value is given as greater than 90%; the “% peak 1 (radiometabolite, retention time ~3.5 min)” value is given as 6%; the “% peak 2 (radiometabolite, retention time ~7.5 min)” value is reported as 2%. In data set [5] (NHP plasma, 30 min p.i.), the “% peak 1 (radiometabolite, retention time ~3.5 min)” value is recorded as 15% and the “% peak 2 (radiometabolite, retention time ~7.5 min)” value stood at 8%. In addition, in data set [5] (NHP plasma, 60 min p.i.), the “% peak 1 (radiometabolite, retention time ~3.5 min)” value turned out to be 29% and the “% peak 2 (radiometabolite, retention time ~7.5 min)” value is listed as 14%. Further, in data set [5] (NHP plasma, 90 min p.i.), the “% peak 1 (radiometabolite, retention time ~3.5 min)” value is 39% and the “% peak 2 (radiometabolite, retention time ~7.5 min)” value was 14%. The “radioactivity of arterial blood found in the plasma” value in data set [5] was 65–75%. The “in vivo metabolic defluorination (bone activity)” value in data set [6] is “appeared more stable to in vivo defluorination”. In data set [6] (5 min p.i.), this molecule registered a blood uptake of 0.343 ± 0.061 %ID/g, a bone uptake of 0.182 ± 0.003 %ID/g, a brain uptake of 0.092 ± 0.011 %ID/g and a fat uptake of 0.119 ± 0.021 %ID/g. For the same molecule, in data set [6] (5 min p.i.), the kidney uptake is 1.789 ± 0.332 %ID/g, the liver uptake turned out to be 4.24 ± 0.74 %ID/g and the muscle uptake was found to be 0.166 ± 0.017 %ID/g. In data set [6] (30 min p.i.), the blood uptake is 0.306 ± 0.016 %ID/g, the bone uptake amounted to 0.144 ± 0.006 %ID/g, the brain uptake worked out at 0.129 ± 0.005 %ID/g and the fat uptake is recorded as 0.202 ± 0.023 %ID/g. In data set [6] (30 min p.i.), this molecule displayed a kidney uptake of 1.022 ± 0.103 %ID/g, a liver uptake of 3.17 ± 0.55 %ID/g and a muscle uptake of 0.156 ± 0.014 %ID/g. In data set [6] (60 min p.i.), this molecule came in with a blood uptake of 0.287 ± 0.010 %ID/g, a bone uptake of 0.224 ± 0.015 %ID/g, a brain uptake of 0.149 ± 0.013 %ID/g and a fat uptake of 0.124 ± 0.011 %ID/g. In data set [6] (60 min p.i.), this molecule yielded a kidney uptake of 0.841 ± 0.087 %ID/g, a liver uptake of 1.80 ± 0.62 %ID/g and a muscle uptake of 0.134 ± 0.009 %ID/g.
